Experimental data from ChEMBL document CHEMBL1201862, “PubChem BioAssay data set” (2004).
The source made the active and inactive calls.

Columns and labels:
[1] = viability of uninfected HEp-2 cells – cell-based, HTS, cytotoxicity control for RSV inhibitor project, dose response (AID 2410); type: functional; details: human respiratory syncytial virus
Vero = experiment: cells; type: functional, cell-based; details: Chlorocebus sabaeus
Beta-galactosidase = Beta-galactosidase (Escherichia coli, UniProt Q8VNN2); experiment: PubChem AID 485352; type: functional
[2] = biological target: T1, Type-1 angiotensin II receptor (Homo sapiens, UniProt P30556); experiment: antagonism of angiotensin II type 1 receptor – cell-based, uHTS hits, selectivity assay for APJ receptor antagonist project, dose response (AID 463214); type: functional;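 further: antagonist potency against angiotensin II stimulated AT1 response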
T1 sequence (P30556 whole entry): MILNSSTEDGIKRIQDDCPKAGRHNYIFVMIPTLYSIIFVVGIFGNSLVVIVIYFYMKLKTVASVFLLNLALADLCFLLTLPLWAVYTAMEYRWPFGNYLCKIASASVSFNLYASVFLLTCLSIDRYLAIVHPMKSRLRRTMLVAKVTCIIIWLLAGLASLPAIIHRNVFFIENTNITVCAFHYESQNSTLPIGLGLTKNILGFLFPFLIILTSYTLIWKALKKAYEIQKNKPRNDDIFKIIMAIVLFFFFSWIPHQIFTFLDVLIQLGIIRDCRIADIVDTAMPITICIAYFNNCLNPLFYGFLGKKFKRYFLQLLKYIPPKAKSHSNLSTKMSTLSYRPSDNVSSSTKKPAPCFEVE

Fatty acid synthase [3] = biological target: T2, Fatty acid synthase (Homo sapiens, UniProt P49327); experiment: inhibition of human FAS-TE enzyme activity – biochemical, endpoint fluorescence intensity, uHTS hits, dose response (AID 624327); type: functional;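 further: fluorescence from hydrolysis of an O-methyl fluorescein acyl ester substrate by the enzyme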
Fatty acid synthase [4] = biological target: T2, Fatty acid synthase; experiment: inhibition of human FAS-TE enzyme activity – biochemical, kinetic fluorescence intensity, dose response (AID 624326); type: functional;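 further: rate of fluorescence rise from hydrolysis of a fluorogenic O-methyl fluorescein ester substrate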
[5] = biological target: T3, Apoptotic protease-activating factor 1 (Homo sapiens, UniProt O14727); type: functional
T3 sequence (O14727 whole entry): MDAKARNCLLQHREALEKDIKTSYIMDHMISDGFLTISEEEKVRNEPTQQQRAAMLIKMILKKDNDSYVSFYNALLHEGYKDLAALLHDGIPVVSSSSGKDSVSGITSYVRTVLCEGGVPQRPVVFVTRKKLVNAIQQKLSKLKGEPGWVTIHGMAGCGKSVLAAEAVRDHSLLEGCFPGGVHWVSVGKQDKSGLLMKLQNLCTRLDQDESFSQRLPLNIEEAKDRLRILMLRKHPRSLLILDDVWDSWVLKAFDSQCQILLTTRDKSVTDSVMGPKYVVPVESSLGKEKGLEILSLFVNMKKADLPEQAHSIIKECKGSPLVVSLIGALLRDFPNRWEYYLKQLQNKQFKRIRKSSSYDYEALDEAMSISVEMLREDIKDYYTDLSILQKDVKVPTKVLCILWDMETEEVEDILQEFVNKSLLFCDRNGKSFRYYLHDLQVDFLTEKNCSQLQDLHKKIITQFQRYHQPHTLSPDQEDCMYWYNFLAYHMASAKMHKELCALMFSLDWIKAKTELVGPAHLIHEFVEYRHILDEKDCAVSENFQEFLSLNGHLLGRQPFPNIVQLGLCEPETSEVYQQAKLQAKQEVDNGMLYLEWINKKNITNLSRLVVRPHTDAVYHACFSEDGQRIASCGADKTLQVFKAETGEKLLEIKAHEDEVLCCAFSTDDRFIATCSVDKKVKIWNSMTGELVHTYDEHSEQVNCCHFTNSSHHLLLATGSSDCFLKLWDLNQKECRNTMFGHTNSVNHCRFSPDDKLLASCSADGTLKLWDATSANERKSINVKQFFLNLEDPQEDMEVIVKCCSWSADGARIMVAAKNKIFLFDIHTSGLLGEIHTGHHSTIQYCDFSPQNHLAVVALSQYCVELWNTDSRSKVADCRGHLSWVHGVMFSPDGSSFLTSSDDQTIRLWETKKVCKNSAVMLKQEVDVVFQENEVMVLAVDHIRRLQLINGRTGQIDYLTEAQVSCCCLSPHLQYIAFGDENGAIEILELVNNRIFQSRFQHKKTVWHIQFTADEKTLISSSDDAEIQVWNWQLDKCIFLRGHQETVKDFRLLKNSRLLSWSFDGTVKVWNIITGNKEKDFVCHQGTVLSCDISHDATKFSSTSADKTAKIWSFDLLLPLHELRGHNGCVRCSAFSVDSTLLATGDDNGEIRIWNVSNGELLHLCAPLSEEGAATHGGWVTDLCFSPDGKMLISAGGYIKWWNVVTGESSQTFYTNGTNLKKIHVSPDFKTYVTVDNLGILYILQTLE

[6] = biological target: T4, Sentrin-specific protease 8 (Homo sapiens, UniProt Q96LD8); experiment: inhibition of human SENP8 cleavage activity – biochemical, luminescence, SAR follow-up (AID 504501); type: functional
T4 sequence (Q96LD8 whole entry): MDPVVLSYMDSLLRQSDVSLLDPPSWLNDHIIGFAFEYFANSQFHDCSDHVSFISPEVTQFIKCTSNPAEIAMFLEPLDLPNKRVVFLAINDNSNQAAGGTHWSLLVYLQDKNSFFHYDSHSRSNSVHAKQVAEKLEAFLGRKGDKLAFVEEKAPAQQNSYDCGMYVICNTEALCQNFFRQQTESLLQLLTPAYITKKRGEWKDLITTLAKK

Caspase-3 [7] = biological target: T5, Caspase-3 (Homo sapiens, UniProt P42574); experiment: inhibition of recombinant caspase-3 activity – biochemical, luminescence, set 2, selectivity assay for SENP protease inhibitor project, SAR follow-up (AID 588599); type: functional
T5 sequence (P42574 whole entry): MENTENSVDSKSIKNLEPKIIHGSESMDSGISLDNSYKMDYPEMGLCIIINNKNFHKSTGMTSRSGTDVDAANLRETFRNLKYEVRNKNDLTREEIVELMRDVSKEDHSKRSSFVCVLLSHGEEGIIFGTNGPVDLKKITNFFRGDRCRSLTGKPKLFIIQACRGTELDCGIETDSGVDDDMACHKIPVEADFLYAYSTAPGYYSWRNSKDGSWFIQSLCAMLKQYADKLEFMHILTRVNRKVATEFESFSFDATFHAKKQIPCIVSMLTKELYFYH

[8] = biological target: T4, Sentrin-specific protease 8; experiment: inhibition of sentrin protease 8 – biochemical, luminescence, set 2, SAR follow-up (AID 588601); type: functional
Caspase-3 [9] = biological target: T5, Caspase-3; experiment: SAR Analysis of small molecule inhibitors of Sentrin-specific proteases (SENPs) using a Caspase-3 Selectivity assay. [Related pubchem assays (depositor defined):AID2540, AID2599, AID434973, AID489001]; type: functional
[10] = biological target: T6, Sentrin-specific protease 7 (Homo sapiens, UniProt Q9BQF6); experiment: inhibition of human SENP7 cleavage activity – biochemical, luminescence, set 2, SAR follow-up (AID 588600); type: functional
T6 sequence (Q9BQF6 whole entry): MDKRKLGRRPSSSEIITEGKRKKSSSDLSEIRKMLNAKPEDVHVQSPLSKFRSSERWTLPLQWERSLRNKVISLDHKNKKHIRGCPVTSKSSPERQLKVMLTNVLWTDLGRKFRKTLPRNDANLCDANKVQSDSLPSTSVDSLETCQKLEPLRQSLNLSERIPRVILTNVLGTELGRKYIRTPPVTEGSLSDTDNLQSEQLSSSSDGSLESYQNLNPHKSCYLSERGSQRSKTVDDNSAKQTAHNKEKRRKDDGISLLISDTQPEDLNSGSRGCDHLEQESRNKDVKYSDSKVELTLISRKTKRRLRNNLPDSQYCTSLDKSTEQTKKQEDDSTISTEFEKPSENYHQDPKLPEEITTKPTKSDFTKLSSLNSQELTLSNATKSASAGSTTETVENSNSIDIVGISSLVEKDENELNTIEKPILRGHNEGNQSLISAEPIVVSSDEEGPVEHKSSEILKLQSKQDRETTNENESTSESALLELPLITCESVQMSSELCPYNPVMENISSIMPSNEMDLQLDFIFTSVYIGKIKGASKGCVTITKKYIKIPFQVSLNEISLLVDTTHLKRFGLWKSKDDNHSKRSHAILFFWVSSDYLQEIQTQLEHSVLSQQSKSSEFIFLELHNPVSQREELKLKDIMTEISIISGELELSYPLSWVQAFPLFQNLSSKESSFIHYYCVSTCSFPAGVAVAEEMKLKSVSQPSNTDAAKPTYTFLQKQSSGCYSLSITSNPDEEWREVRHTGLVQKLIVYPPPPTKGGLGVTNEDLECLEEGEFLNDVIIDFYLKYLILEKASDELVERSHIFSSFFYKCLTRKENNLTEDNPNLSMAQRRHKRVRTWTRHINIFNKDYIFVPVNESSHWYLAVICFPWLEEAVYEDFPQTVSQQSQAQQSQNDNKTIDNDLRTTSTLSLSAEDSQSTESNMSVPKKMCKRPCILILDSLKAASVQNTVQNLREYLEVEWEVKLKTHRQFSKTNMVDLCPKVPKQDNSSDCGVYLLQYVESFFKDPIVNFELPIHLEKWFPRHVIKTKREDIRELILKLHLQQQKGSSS

[11] = biological target: T7, Sentrin-specific protease 6 (Homo sapiens, UniProt Q9GZR1); experiment: SAR Analysis of small molecule inhibitors of Sentrin-specific protease 6 (SENP6) using a Luminescent assay. [Related pubchem assays (depositor defined):AID2582, AID2599]; type: functional
T7 sequence (Q9GZR1 whole entry): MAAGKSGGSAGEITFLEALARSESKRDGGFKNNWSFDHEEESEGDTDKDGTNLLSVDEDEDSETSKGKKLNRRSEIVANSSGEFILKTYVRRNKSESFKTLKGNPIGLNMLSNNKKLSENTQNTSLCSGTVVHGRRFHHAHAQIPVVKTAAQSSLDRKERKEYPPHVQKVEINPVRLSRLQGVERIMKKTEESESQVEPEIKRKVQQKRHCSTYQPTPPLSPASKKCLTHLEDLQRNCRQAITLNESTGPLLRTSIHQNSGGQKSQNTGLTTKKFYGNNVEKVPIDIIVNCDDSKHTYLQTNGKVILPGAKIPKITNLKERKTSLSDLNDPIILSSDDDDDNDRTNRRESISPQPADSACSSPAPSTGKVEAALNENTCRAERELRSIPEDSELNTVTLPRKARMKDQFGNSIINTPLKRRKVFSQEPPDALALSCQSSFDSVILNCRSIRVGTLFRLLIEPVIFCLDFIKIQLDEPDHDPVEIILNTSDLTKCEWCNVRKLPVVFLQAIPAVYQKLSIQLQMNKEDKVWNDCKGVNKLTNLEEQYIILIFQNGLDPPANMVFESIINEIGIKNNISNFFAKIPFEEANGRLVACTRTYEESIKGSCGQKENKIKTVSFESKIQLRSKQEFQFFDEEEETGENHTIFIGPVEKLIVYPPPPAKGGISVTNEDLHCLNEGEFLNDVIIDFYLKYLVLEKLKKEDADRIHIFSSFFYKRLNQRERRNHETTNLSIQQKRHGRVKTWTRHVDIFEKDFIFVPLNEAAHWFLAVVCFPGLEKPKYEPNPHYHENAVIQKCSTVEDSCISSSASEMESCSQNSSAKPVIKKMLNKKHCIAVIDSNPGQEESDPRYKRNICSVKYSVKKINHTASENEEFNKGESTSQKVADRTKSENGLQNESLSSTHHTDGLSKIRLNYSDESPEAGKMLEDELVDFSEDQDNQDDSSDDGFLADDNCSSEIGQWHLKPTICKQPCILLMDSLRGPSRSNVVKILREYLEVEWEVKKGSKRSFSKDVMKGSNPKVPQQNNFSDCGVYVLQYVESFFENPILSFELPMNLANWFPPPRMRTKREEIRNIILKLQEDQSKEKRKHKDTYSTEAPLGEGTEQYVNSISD

[12] = biological target: T6, Sentrin-specific protease 7; experiment: inhibition of human SENP7 cleavage activity – biochemical, luminescence, SAR follow-up (AID 504497); type: functional
HEK293 = experiment: EBV LMP1 TES2 canonical NF-kB signalling blockers – cell-based, HEK293, luciferase, cherry-pick, dose response (AID 588343); type: functional; details: Homo sapiens
[13] = biological target: T8, Latent membrane protein 1 (Human herpesvirus 4 (strain B95-8), UniProt P03230); experiment: LMP1 TES1 pathway selectivity over dsRED control – imaging, HEK293T, dual-color eGFP/dsRED, cherry-picks, selectivity assay for LMP1 NF-kB inhibitor project, dose response (AID 588398); type: functional, cell-based
T8 sequence (P03230 whole entry): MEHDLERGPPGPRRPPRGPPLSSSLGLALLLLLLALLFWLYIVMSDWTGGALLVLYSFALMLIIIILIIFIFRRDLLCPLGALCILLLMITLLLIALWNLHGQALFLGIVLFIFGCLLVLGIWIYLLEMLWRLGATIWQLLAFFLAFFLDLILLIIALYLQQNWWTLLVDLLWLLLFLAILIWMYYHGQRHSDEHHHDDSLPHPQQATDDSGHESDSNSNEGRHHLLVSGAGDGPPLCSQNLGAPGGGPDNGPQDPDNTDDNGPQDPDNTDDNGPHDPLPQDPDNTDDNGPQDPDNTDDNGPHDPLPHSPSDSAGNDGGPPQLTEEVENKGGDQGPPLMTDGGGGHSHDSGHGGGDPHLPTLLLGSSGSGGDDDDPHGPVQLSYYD

Chain of Beta-galactosidase (Q8VNN2 whole entry): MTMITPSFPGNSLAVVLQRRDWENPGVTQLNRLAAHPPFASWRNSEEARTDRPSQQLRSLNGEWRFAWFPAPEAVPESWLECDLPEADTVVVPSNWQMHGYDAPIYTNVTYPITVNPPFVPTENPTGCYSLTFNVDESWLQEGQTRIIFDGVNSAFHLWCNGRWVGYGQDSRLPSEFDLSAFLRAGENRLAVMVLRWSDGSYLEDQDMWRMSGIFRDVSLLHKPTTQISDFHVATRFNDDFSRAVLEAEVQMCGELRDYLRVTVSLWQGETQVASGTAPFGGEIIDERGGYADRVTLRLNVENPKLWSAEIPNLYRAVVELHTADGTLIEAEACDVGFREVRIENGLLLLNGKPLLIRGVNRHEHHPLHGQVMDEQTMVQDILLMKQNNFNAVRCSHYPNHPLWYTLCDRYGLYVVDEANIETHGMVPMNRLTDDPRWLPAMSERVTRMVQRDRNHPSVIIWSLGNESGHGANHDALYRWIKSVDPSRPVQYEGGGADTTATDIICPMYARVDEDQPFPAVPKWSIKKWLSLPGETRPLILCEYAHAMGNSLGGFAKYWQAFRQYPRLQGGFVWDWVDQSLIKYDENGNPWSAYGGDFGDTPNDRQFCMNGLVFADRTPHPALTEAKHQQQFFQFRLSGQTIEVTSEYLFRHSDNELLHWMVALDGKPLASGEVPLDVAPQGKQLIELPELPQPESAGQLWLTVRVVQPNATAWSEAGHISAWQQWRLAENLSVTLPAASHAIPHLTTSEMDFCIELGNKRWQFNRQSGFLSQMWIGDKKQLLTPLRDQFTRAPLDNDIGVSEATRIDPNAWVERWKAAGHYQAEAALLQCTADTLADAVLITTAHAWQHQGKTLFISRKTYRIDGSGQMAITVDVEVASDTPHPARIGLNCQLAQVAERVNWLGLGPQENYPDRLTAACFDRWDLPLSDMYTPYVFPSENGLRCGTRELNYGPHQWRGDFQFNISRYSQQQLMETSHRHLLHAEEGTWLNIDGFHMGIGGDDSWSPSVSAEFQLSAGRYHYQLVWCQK
T2 sequence (P49327 whole entry): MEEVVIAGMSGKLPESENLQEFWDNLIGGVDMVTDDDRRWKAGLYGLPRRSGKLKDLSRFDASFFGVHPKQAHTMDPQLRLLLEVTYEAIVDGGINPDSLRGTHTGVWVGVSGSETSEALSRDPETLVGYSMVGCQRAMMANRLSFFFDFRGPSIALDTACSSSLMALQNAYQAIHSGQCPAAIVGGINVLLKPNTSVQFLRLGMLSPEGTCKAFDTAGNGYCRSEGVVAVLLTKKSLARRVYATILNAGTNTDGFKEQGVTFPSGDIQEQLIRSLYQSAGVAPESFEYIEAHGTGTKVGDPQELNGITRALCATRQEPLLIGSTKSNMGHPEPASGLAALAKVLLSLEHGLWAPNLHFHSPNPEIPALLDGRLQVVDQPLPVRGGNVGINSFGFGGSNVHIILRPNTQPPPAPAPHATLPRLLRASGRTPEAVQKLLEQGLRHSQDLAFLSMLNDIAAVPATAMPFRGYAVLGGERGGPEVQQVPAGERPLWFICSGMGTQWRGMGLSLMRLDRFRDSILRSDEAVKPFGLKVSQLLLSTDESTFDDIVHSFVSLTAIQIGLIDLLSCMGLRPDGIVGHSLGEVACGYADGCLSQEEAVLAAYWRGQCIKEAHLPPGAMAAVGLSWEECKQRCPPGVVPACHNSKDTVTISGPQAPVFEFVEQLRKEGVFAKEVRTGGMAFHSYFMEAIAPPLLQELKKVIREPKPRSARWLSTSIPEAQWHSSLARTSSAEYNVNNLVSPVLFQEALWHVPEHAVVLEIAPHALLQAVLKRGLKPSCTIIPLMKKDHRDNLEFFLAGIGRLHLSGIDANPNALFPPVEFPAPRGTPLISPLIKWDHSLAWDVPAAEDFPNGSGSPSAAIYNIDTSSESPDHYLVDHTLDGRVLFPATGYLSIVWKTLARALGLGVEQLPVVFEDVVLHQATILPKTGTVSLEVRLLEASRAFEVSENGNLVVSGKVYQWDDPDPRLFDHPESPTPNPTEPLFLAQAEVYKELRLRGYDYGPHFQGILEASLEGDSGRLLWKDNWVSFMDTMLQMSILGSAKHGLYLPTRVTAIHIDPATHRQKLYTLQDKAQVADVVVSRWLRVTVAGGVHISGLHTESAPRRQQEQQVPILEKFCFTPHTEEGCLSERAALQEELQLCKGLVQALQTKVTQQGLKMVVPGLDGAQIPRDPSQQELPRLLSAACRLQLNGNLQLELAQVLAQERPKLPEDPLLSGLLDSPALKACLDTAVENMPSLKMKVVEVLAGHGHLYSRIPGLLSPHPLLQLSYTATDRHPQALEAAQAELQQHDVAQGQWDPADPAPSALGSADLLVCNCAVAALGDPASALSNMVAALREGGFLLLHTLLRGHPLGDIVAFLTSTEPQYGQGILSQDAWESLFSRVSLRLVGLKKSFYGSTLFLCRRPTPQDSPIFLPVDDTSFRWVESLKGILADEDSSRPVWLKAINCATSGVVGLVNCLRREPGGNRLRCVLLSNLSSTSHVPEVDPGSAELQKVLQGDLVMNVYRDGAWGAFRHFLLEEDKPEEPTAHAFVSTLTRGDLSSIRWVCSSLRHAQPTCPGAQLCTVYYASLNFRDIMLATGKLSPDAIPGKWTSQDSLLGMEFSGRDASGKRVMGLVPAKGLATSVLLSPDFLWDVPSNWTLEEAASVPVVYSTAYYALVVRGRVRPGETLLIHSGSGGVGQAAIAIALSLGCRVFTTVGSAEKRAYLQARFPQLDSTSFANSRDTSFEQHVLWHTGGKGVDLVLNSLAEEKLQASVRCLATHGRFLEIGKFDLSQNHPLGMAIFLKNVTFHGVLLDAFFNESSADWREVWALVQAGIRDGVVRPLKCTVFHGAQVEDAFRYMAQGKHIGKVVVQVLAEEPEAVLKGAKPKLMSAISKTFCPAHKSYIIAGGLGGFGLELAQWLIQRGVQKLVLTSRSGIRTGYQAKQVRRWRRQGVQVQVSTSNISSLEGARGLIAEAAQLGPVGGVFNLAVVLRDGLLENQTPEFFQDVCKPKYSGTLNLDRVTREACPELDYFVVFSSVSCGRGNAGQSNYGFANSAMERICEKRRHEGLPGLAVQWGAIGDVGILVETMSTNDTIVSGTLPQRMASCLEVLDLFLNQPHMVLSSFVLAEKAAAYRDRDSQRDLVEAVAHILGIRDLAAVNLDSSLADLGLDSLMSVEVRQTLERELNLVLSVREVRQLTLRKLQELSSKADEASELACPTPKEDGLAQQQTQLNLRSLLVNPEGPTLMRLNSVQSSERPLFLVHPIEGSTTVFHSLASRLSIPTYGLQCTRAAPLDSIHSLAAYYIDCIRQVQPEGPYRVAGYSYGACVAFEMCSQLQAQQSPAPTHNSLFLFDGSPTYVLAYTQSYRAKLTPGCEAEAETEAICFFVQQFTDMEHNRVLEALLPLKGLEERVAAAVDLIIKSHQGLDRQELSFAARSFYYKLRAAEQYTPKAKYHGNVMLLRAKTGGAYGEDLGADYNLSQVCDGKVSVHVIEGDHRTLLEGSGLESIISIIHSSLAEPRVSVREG

Nc1ccc(C(=O)OCCCc2nc3cc4ccccc4cc3[nH]2)cc1
CC50 [1]: 46 µM (active) | IC50 (Vero): > 25 µM (active)

O=C(CCc1ccccc1)OCC(=O)c1cccc([N+](=O)[O-])c1
EC50 (Beta-galactosidase): > 40 µM (inactive) | IC50 [2]: 19.2 µM (active) | IC50 (Fatty acid synthase [3]): 11.3 µM (active) | IC50 (Fatty acid synthase [4]): 9.4 µM (active)

O=C(COC(=O)c1cc2ccccc2oc1=O)c1cccc([N+](=O)[O-])c1
EC50 (Beta-galactosidase): > 40 µM (inactive) | IC50 [2]: > 40 µM (not active)

COc1ccc(-n2nc3ccc(N)cc3n2)cc1Cl
CC50 [1]: 47.1 µM (active) | IC50 [5]: > 100 µM (inactive)

COc1cccc(N2CC(C)Cn3c2nc2c3c(=O)[nH]c(=O)n2C)c1 (configuration not stated)
EC50 (Beta-galactosidase): > 40 µM (inactive) | IC50 [2]: > 40 µM (not active)

O=C(Nc1nc2ccc(Cl)cc2s1)c1cccs1
IC50 [6]: 1.5 µM (active) | IC50 (Caspase-3 [7]): 2.07 µM (active) | IC50 [8]: 1.25 µM (active) | IC50 (Caspase-3 [9]): 2 µM (active) | IC50 [10]: 1.39 µM (active) | IC50 [11]: 1.3 µM (active) | IC50 [12]: 1.2 µM (active)

CC(=NNC(=S)N1CCCC1)c1ccccn1
AC50 (HEK293): 0.0151 µM (active) | AC50 [13]: 0.444 µM (active)

O=C(CCNS(=O)(=O)c1ccccc1)NCCSc1ccc(Br)cc1
IC50 [5]: > 100 µM (inactive)
